From US10752588B2 (The Broad Institute, Inc., priority 2014, dated 2020)
Read-outs that look alike come from different tables or passages of the source.

Assays:
[1] = target: T1, human D2R/β-arrestin (Homo sapiens (Human), UniProt P14416); details: read-out: β-arrestin Antagonist
[2] = target: T1, human D2R/β-arrestin; assay: cell-based; details: cAMP Antagonist
[3] = target: T1, human D2R/β-arrestin; assay: β-Arrestin agonist assay (PathHunter); type: cell-based; details: CHO-K1 cell line expressing human D2R/β-arrestin
Summary of the method: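 After compound incubation, detection reagent (Buffer:Emerald II:Galactor-Star, 19:5:1) added and luminescence or fluorescence read.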

[4] = target: T1, human D2R/β-arrestin; assay: Gi/cAMP agonist assay (Lance Ultra cAMP, Forskolin); type: cell-based; details: CHO-K1 cell line expressing human D2R/β-arrestin
Summary of the method: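 Cells were plated and incubated before compounds were pin-transferred and incubated for 10 min at 37 °C. Forskolin was then added to stimulate cAMP. cAMP was detected by Lance Ultra TR-FRET using Eu-cAMP tracer and ULight-anti-cAMP antibody.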

[5] = target: T1, human D2R/β-arrestin; details: read-out: cAMP Antagonist
[6] = target: T1, human D2R/β-arrestin; assay: cell-based; details: β-arrestin Antagonist, CHO-K1 cell line expressing human D2R/β-arrestin; quinpirole used as agonist
[7] = Microsomal stability, mouse
[8] = CHO-K1 cell line expressing human D2R/β-arrestin, quinpirole used as agonist

T1 sequence (P14416 whole entry): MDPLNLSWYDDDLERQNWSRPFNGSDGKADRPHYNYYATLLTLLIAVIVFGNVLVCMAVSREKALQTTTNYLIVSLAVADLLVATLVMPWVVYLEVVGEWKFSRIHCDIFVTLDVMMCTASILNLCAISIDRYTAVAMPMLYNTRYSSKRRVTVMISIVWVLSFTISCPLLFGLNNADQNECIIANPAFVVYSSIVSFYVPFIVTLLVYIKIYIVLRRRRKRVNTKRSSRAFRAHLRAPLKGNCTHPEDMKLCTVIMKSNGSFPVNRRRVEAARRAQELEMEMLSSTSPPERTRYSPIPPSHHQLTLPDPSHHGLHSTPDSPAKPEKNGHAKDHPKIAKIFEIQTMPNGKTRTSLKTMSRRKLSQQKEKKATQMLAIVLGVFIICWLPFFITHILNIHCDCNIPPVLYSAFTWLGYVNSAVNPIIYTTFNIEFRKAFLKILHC

IC50 [1, 8] [nM] | IC50 [2, 8] [nM] | EC50 [3] [nM] | EC50 [4] [nM] | IC50 [6] [nM] | IC50 [5, 8] [nM] | Microsomal Stability: % remaining after 60 minutes [7] | SMILES | IC50 [1] [nM] | IC50 [5] [nM] | IC50 [2] [nM]
1000 to 10000 | > 30000 | 1000 to 10000 | < 100 |  |  |  | O=C(NC(c1ccc(Cl)cc1)c1ccccn1)C1CCN(CCOc2cccc(Cl)c2)CC1 (single isomer, unassigned) [Compound 1b, 1-(2-(3-chlorophenoxy)ethyl)-N-((4-chlorophenyl)(pyridin-2-yl)methyl)piperidine-4-carboxamide] |  |  | 
1000 to 10000 | 1000 to 10000 | > 30000 | 1000 to 10000 |  |  |  | COc1cccc(C(c2ccccn2)N(C)CC2CCN(CCOc3ccccc3)CC2)c1 (single isomer, unassigned) [Compound 76b, 1-(3-methoxyphenyl)-N-methyl-N-((1-(2-phenoxyethyl)piperidin-4-yl)methyl)-1-(pyridin-2-yl)methanamine] |  |  | 
 |  | > 30000 | > 30000 | 1000 to 10000 | 100 to 1000 |  | COc1cccc(C(c2ccccn2)N(C)CC2CCN(CCOc3ccccc3F)CC2)c1 (single isomer, unassigned) [Compound 77b, N-((1-(2-(2-fluorophenoxy)ethyl)piperidin-4-yl)methyl)-1-(3-methoxyphenyl)-N-methyl-1-(pyridin-2-yl)methanamine] |  |  | 
 |  | > 30000 | > 30000 | 1000 to 10000 | 100 to 1000 |  | Fc1ccccc1C(NCC1CCN(CCOc2ccccc2)CC1)c1ccc(Cl)cc1 (single isomer, unassigned) [Compound 81b, 1-(4-chlorophenyl)-1-(2-fluorophenyl)-N-((1-(2-phenoxyethyl)piperidin-4-yl)methyl)methanamine] |  |  | 
1000 to 10000 | > 30000 | > 30000 | 100 to 1000 |  |  | m19% | O=C(NC(c1cccc(OC(F)(F)F)c1)c1ccccn1)C1CCN(CCOc2ccccc2F)CC1 (single isomer, unassigned) [Compound 93b, 1-(2-(2-fluorophenoxy)ethyl)-N-(pyridin-2-yl(3-(trifluoromethoxy)phenyl)methyl)piperidine-4-carboxamide] |  |  | 
 | 100 to 1000 | > 30000 | 100 to 1000 | 100 to 1000 |  | m3% | CC(C1CCN(CCOc2ccccc2)CC1)N(C)C(c1ccc(Cl)cc1)c1ccccn1 (single isomer, unassigned) [Compound 97b, N-((4-chlorophenyl)(pyridin-2-yl)methyl)-N-methyl-1-(1-(2-phenoxyethyl)piperidin-4-yl)ethan-1-amine] |  |  | 
100 to 1000 |  | > 30000 |  |  |  |  | CC1(CNC(c2ccc(F)cc2)c2ccccn2)CCN(CCOc2ccccc2C(F)(F)F)CC1 (single isomer, unassigned) [Compound 101b, 1-(4-fluorophenyl)-N-((4-methyl-1-(2-(2-(trifluoromethyl)phenoxy)ethyl)piperidin-4-yl)methyl)-1-(pyridin-2-yl)methanamine] |  |  | 
 | > 30000 | 100 to 1000 | < 100 | 100 to 1000 |  | m1% | Clc1ccc(C(c2ccccn2)N2CCC3(CCN(CCOc4ccccc4)CC3)C2)cc1 (single isomer, unassigned) [Compound 105a, 2-((4-chlorophenyl)(pyridin-2-yl)methyl)-8-(2-phenoxyethyl)-2,8-diazaspiro[4.5]decane] |  |  | 
 |  | 1000 to 10000 | 100 to 1000 | 1000 to 10000 | > 30000 |  | Clc1ccc(C(c2ccccn2)N2CCC3(CCN(CCOc4ccccc4)CC3)C2)cc1 (single isomer, unassigned) [Compound 105b, 2-((4-chlorophenyl)(pyridin-2-yl)methyl)-8-(2-phenoxyethyl)-2,8-diazaspiro[4.5]decane] |  |  | 
1000 to 10000 | > 30000 | 100 to 1000 | < 100 |  |  |  | O=C(NC(c1ccc2c(c1)OC(F)(F)O2)c1ccccn1)C1CCN(CCOc2ccc(F)cc2F)CC1 (single isomer, unassigned) [Compound 130b, N-((2,2-difluorobenzo[d][1,3]dioxol-5-yl)(pyridin-2-yl)methyl)-1-(2-(2,4-difluorophenoxy)ethyl)piperidine-4-carboxamide] |  |  | 
100 to 1000 | < 100 | > 30000 | < 100 |  |  |  | CN(CC1CCN(CCOc2ccccc2F)CC1)C(c1ccc2c(c1)OCO2)c1ccccn1 (single isomer, unassigned) [Compound 138b, 1-(benzo[d][1,3]dioxol-5-yl)-N-((1-(2-(2-fluorophenoxy)ethyl)piperidin-4-yl)methyl)-N-methyl-1-(pyridin-2-yl)methanamine] |  |  | 
 |  | > 30000 | 100 to 1000 | 1000 to 10000 | 100 to 1000 |  | Fc1ccccc1OCCN1CCC(CNC(c2ccc3c(c2)OCO3)c2ccccn2)CC1 (single isomer, unassigned) [Compound 139b, 1-(benzo[d][1,3]dioxol-5-yl)-N-((1-(2-(2-fluorophenoxy)ethyl)piperidin-4-yl)methyl)-1-(pyridin-2-yl)methanamine] |  |  | 
 |  | 100 to 1000 | < 100 | 100 to 1000 | > 30000 |  | CC1(C(=O)NC(c2ccc(Cl)cc2)c2ccccn2)CCN(CCOc2ccccc2)CC1 (single isomer, unassigned) [Compound 144b, N-((4-chlorophenyl)(pyridin-2-yl)methyl)-4-methyl-1-(2-phenoxyethyl)piperidine-4-carboxamide] |  |  | 
1000 to 10000 |  | > 30000 |  |  |  |  | COc1cccc(C(NC(=O)C2CCN(CCOc3ccccc3)CC2)c2ccccc2)c1 (stereo not drawn) [Compound 46] |  |  | 
 | > 30000 | > 30000 | 100 to 1000 | 1000 to 10000 |  | m0% | CN(C(=O)C1CCN(CCOc2ccccc2)CC1)C(c1ccc(Cl)cc1)c1ccccn1 (stereo not drawn) [Compound 51, N((4-chlorophenyl)(pyridin-2-yl)methyl)-N-methyl-1-(2-phenoxyethyl) piperidine-4-carboxamide] |  |  | 
 | > 30000 | > 30000 | < 100 | 100 to 1000 |  | m12% | O=C(NC(c1cccc(OC(F)(F)F)c1)c1ccccn1)C1CCN(CCOc2ccccc2F)CC1 (stereo not drawn) [Compound 93, 1-(2-(2-fluorophenoxy)ethyl)-N-(pyridin-2-yl(3-(trifluoromethoxy)phenyl)methyl)piperidine-4-carboxamide] |  |  | 
 | > 30000 | > 30000 | 100 to 1000 | 1000 to 10000 |  | m7% | Clc1ccc(C(OCC2CCN(CCOc3ccccc3)CC2)c2ccccn2)cc1 (stereo not drawn) [Compound 99, 2-((4-chlorophenyl)((1-(2-phenoxyethyl)piperidin-4-yl)methoxy)methyl)pyridine] |  |  | 
 | > 30000 | > 30000 | 1000 to 10000 | 10000 to 30000 |  | m45% | Clc1ccc(C(c2ccccn2)N2CC3(CCN(CCOc4ccccc4)CC3)C2)cc1 (stereo not drawn) [Compound 104, 2-((4-chlorophenyl)(pyridin-2-yl)methyl)-7-(2-phenoxyethyl)-2,7-diazaspiro[3.5]nonane] |  |  | 
 | 100 to 1000 | > 30000 | > 30000 | 1000 to 10000 |  | m2% | CC(C)N(CC1CCN(CCOc2ccc(F)cc2)CC1)C(c1ccc(Cl)cc1)c1ccccn1 (stereo not drawn) [Compound 135, N-((4-chlorophenyl)(pyridin-2-yl)methyl)-N-((1-(2-(4-fluorophenoxy)ethyl)piperidin-4-yl)methyl)propan-2-amine] |  |  | 
 | 1000 to 10000 | > 30000 | > 30000 | 1000 to 10000 |  | m1% | CN(CC1CCN(CCOc2ccc(C(F)(F)F)cc2)CC1)C(c1ccc(Cl)cc1)c1ccccn1 (stereo not drawn) [Compound 137, 1-(4-chlorophenyl)-N-methyl-1-(pyridin-2-yl)-N-((1-(2-(4-(trifluoromethyl)phenoxy)ethyl)piperidin-4-yl)methyl)methanamine] |  |  | 

SMILES | IC50 [1, 8] [nM] | IC50 [2, 8] [nM] | EC50 [3] [nM] | EC50 [4] [nM] | IC50 [6] [nM] | IC50 [5, 8] [nM] | Microsomal Stability: % remaining after 60 minutes [7] | IC50 [1] [nM] | IC50 [5] [nM] | IC50 [2] [nM]
O=C(NC(c1ccc(Cl)cc1)c1ccccn1)C1CCN(CCOc2ccccc2F)CC1 (single isomer, unassigned) [Compound 3a] |  |  | > 30000 | > 30000 |  |  |  | 100 to 1000 | 100 to 1000 | 
O=C(NC(c1ccc(Cl)cc1)c1ccccn1)C1CCN(CCOc2ccccc2F)CC1 (single isomer, unassigned) [Compound 3b] |  |  | > 30000 | < 100 |  |  |  | 100 to 1000 | > 30000 | 
CC(C)N(CC1CCN(CCOc2ccccc2)CC1)C(c1ccc(Cl)cc1)c1ccccn1 (single isomer, unassigned) [Compound 103b, N-((4-chlorophenyl)(pyridin-2-yl)methyl)-N-((1-(2-phenoxyethyl)piperidin-4-yl)methyl)propan-2-amine] |  |  | 100 to 1000 | < 100 |  |  |  | 100 to 1000 |  | > 30000
O=C(NC(c1ccc(Cl)cc1)c1ccccc1F)C1CCN(CCOc2ccccc2F)CC1 (stereo not drawn) [Compound 96, N-((4-chlorophenyl)(2-fluorophenyl)methyl)-1-(2-(2-fluorophenoxy)ethyl) piperidine-4-carboxamide] |  | 100 to 1000 | > 30000 | 100 to 1000 | 100 to 1000 |  | m26% |  |  | 
